What was measured:
[1] = system: IL-17A-induced G-CSF production in human normal keratinocyte (NHK); assay: NHK Assay: IL-17A-induced G-CSF production in human normal keratinocytes; type: cell-based; settings: Homo sapiens, Keratinocyte, 24 h, adult normal human keratinocytes, IL-17A 5 ng/mL, simple average if tested more than once
Method in brief: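 Titrated compound plus recombinant human IL-17A (pre-incubated 1 h, rt) were applied to adult human keratinocytes at 5 ng/mL cytokine, 0.2% DMSO. Cultures ran 24 h at 37° C, and supernatant G-CSF was measured by HTRF to derive IC50.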

[2] = biological target: IL-17A(FLAG-Tagged): IL-17RA(His-Tagged) (Homo sapiens, UniProt Q16552, K93Q); assay: IL-17A(FLAG-Tagged): IL-17RA(His-Tagged) Binding Disruption Eu-HTRF Assay; settings: IL-17A/IL-17RA binding disruption, simple average if tested more than once
Method in brief: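 IC50 comes from a one-site competition fit of the HTRF 665/620 nm ratio. Compound dilutions (2-fold, 22 points) were held 1 h rt with FLAG-tagged IL-17A dimer, then His-tagged IL-17RA plus Eu-cryptate anti-FLAG and D2 anti-His antibodies were added for 2 h rt.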

Sequence of UniProt Q16552 (Q16552 with tags, fused parts or gaps K93Q): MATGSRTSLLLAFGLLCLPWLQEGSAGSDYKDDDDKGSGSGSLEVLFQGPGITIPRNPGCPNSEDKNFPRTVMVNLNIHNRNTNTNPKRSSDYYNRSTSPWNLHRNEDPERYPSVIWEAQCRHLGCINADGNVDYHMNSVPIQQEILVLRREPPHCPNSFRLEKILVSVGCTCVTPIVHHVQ

Work on O=C(CC1CC(F)(F)C1)NC(c1cnn2cc([C@@H](NC(=O)c3cnn(CC(F)(F)F)n3)C3CCC(F)(F)CC3)nc2c1)C1CC1 (stereo in doubt) [Example 28, N—((S)-(7-((R*)-Cyclopropyl(2-(3,3-difluorocyclobutyl)acetamido)methyl)imidazo[1,2-b]pyridazin-2-yl)(4,4-difluorocyclohexyl)methyl)-2-(2,2,2-trifluoroethyl)-2H-1,2,3-triazole-4-carboxamide] yielded an IC50 [1] of 390 nM and an IC50 [2] of 90 nM.

In the case of O=C(CCC(F)(F)F)N[C@H](c1cnn2cc([C@H](NC(=O)c3conc3C3CCCC3)C3CCC(F)(F)CC3)nc2c1)C1CC1 (stereo in doubt) [Example 117, 3-Cyclopentyl-N—((R)-(7-((S)-cyclopropyl(4,4,4-trifluorobutanamido)methyl)imidazo[1,2-b]pyridazin-2-yl)(4,4-difluorocyclohexyl)methyl)isoxazole-4-carboxamide], the IC50 [1] is reported as 120 nM and the IC50 [2] is reported as 49 nM.

CC(C)C(NC(=O)CC1CC(F)(F)C1)c1cnn2cc([C@@H](NC(=O)c3nonc3OCC(F)F)C3CCC(F)(F)CC3)nc2c1 (stereo in doubt) [Example 514, N—((S)-(7-((S*)-1-(2-(3,3-Difluorocyclobutyl)acetamido)-2-methylpropyl)imidazo[1,2-b]pyridazin-2-yl)(4,4-difluorocyclohexyl)methyl)-4-(2,2-difluoroethoxy)-1,2,5-oxadiazole-3-carboxamide] showed an IC50 [1] of 42 nM and an IC50 [2] of 87 nM.

With CC(C)n1ncnc1C(=O)N[C@H](c1cn2ncc(C(NC(=O)CC3CC(F)(F)C3)C3CCOCC3)cc2n1)C1CCC(F)(F)CC1 (stereo in doubt) [Example 537, N—((S)-(7-((R*)-(2-(3,3-Difluorocyclobutyl)acetamido)(tetrahydro-2H-pyran-4-yl)methyl)imidazo[1,2-b]pyridazin-2-yl)(4,4-difluorocyclohexyl)methyl)-1-isopropyl-1H-1,2,4-triazole-5-carboxamide] the IC50 [1] was 150 nM and the IC50 [2] was 150 nM.

Work on O=C(CCC(F)(F)F)N[C@@H](c1cnn2cc([C@@H](NC(=O)c3cnn(CC4CCC4(F)F)n3)C3CCC(F)(F)CC3)nc2c1)C1CC1 (stereo partly drawn) [Example 4] yielded an IC50 [1] of 370 nM and an IC50 [2] of 100 nM.

Work on O=C(CCC(F)(F)F)NCc1cnn2cc([C@@H](NC(=O)c3ccccc3)C3CCC(F)(F)CC3)nc2c1 [Example 5, (S)—N-((4,4-Difluorocyclohexyl)(7-((4,4,4-trifluorobutanamido)methyl)imidazo[1,2-b]pyridazin-2-yl)methyl)benzamide] yielded an IC50 [1] of 1900 nM and an IC50 [2] of 1100 nM.

With O=C(CCC(F)(F)F)N[C@@H](c1cnn2cc([C@@H](NC(=O)c3cnn(CCC(F)F)n3)C3CCC(F)(F)CC3)nc2c1)C1CC1 [Example 32, N—((S)-(7-((R)-Cyclopropyl(4,4,4-trifluorobutanamido)methyl)imidazo[1,2-b]pyridazin-2-yl)(4,4-difluorocyclohexyl)methyl)-2-(3,3-difluoropropyl)-2H-1,2,3-triazole-4-carboxamide] the IC50 [1] was 240 nM and the IC50 [2] was 140 nM.

With O=C(CCC(F)(F)F)N[C@@H](c1cnn2cc([C@@H](NC(=O)c3ncn(CCC(F)(F)F)n3)C3CCC(F)(F)CC3)nc2c1)C1CC1 [Example 33, N—((S)-(7-((R)-Cyclopropyl(4,4,4-trifluorobutanamido)methyl)imidazo[1,2-b]pyridazin-2-yl)(4,4-difluorocyclohexyl)methyl)-1-(3,3,3-trifluoropropyl)-1H-1,2,4-triazole-3-carboxamide] the IC50 [1] was over 20000 nM and the IC50 [2] was 4500 nM.

O=C(CCC(F)(F)F)N[C@@H](c1cnn2cc([C@@H](NC(=O)c3cnnn3CCOC(F)F)C3CCC(F)(F)CC3)nc2c1)C1CC1 [Example 34, N—((S)-(7-((R)-Cyclopropyl(4,4,4-trifluorobutanamido)methyl)imidazo[1,2-b]pyridazin-2-yl)(4,4-difluorocyclohexyl)methyl)-1-(2-(difluoromethoxy)ethyl)-1H-1,2,3-triazole-5-carboxamide] gave an IC50 [1] of 64 nM and an IC50 [2] of 180 nM.

With O=C(CCC(F)(F)F)N[C@@H](c1cnn2cc([C@@H](NC(=O)c3cnn(CCOC(F)F)n3)C3CCC(F)(F)CC3)nc2c1)C1CC1 [Example 35, N—((S)-(7-((R)-Cyclopropyl(4,4,4-trifluorobutanamido)methyl)imidazo[1,2-b]pyridazin-2-yl)(4,4-difluorocyclohexyl)methyl)-2-(2-(difluoromethoxy)ethyl)-2H-1,2,3-triazole-4-carboxamide] the IC50 [1] was 200 nM and the IC50 [2] was 120 nM.

In the case of O=C(CCC(F)(F)F)N[C@@H](c1cnn2cc([C@@H](NC(=O)c3cnn(CCOC(F)(F)F)c3)C3CCC(F)(F)CC3)nc2c1)C1CC1 [Example 36, N—((S)-(7-((R)-Cyclopropyl(4,4,4-trifluorobutanamido)methyl)imidazo[1,2-b]pyridazin-2-yl)(4,4-difluorocyclohexyl)methyl)-1-(2-(trifluoromethoxy)ethyl)-1H-pyrazole-4-carboxamide], the IC50 [1] is reported as 120 nM and the IC50 [2] is reported as 140 nM.

O=C(CCC(F)(F)F)N[C@@H](c1cnn2cc([C@@H](NC(=O)c3cnn(CCOC(F)F)c3)C3CCC(F)(F)CC3)nc2c1)C1CC1 [Example 37, N—((S)-(7-((R)-Cyclopropyl(4,4,4-trifluorobutanamido)methyl)imidazo[1,2-b]pyridazin-2-yl)(4,4-difluorocyclohexyl)methyl)-1-(2-(difluoromethoxy)ethyl)-1H-pyrazole-4-carboxamide] was tested, and the IC50 [1] was 630 nM and the IC50 [2] was 230 nM.

Work on O=C(CCC(F)(F)F)N[C@@H](c1cnn2cc([C@@H](NC(=O)c3ncnn3CCC(F)(F)F)C3CCC(F)(F)CC3)nc2c1)C1CC1 [Example 38, N—((S)-(7-((R)-Cyclopropyl(4,4,4-trifluorobutanamido)methyl)imidazo[1,2-b]pyridazin-2-yl)(4,4-difluorocyclohexyl)methyl)-1-(3,3,3-trifluoropropyl)-1H-1,2,4-triazole-5-carboxamide] yielded an IC50 [1] of 400 nM and an IC50 [2] of 78 nM.

For O=C(CCC(F)(F)F)N[C@@H](c1cnn2cc([C@@H](NC(=O)c3ncnn3CC3CC3)C3CCC(F)(F)CC3)nc2c1)C1CC1 [Example 39, N—((S)-(7-((R)-Cyclopropyl(4,4,4-trifluorobutanamido)methyl)imidazo[1,2-b]pyridazin-2-yl)(4,4-difluorocyclohexyl)methyl)-1-(cyclopropylmethyl)-1H-1,2,4-triazole-5-carboxamide], the IC50 [1] was 430 nM and the IC50 [2] was 110 nM.

Cc1ccccc1C(=O)N[C@H](c1cn2ncc([C@H](NC(=O)CCC(F)(F)F)C3CC3)cc2n1)C1CCC(F)(F)CC1 [Example 40, N—((S)-(7-((R)-Cyclopropyl(4,4,4-trifluorobutanamido)methyl)imidazo[1,2-b]pyridazine-2-yl)(4,4-difluorocyclohexyl)methyl)-2-methylbenzamide] gave an IC50 [1] of 1200 nM and an IC50 [2] of 410 nM.

Molecule CCc1ccccc1C(=O)N[C@H](c1cn2ncc([C@H](NC(=O)CCC(F)(F)F)C3CC3)cc2n1)C1CCC(F)(F)CC1 [Example 41, N—((S)-(7-((R)-Cyclopropyl(4,4,4-trifluorobutanamido)methyl)imidazo[1,2-b]pyridazin-2-yl)(4,4-difluorocyclohexyl)methyl)-2-ethylbenzamide] has an IC50 [1] of 2000 nM and an IC50 [2] of 350 nM.

O=C(CCC(F)(F)F)N[C@@H](c1cnn2cc([C@@H](NC(=O)c3ccccc3Cl)C3CCC(F)(F)CC3)nc2c1)C1CC1 [Example 42, 2-Chloro-N—((S)-(7-((R)-cyclopropyl(4,4,4-trifluorobutanamido)methyl)imidazo[1,2-b]pyridazin-2-yl)(4,4-difluorocyclohexyl)methyl)benzamide] gave an IC50 [1] of 2200 nM and an IC50 [2] of 410 nM.

O=C(CCC(F)(F)F)N[C@@H](c1cnn2cc([C@@H](NC(=O)C3CC34CC4)C3CCC(F)(F)CC3)nc2c1)C1CC1 (stereo partly drawn) [Example 44, N—((S)-(7-((R)-Cyclopropyl(4,4,4-trifluorobutanamido)methyl)imidazo[1,2-b]pyridazin-2-yl)(4,4-difluorocyclohexyl)methyl)spiro[2.2]pentane-1-carboxamide] was tested, and the IC50 [1] was 1400 nM and the IC50 [2] was 740 nM.

O=C(CCC(F)(F)F)N[C@@H](c1cnn2cc([C@@H](NC(=O)C3CC34CCC4)C3CCC(F)(F)CC3)nc2c1)C1CC1 (stereo partly drawn) [Example 45, N—((S)-(7-((R)-Cyclopropyl(4,4,4-trifluorobutanamido)methyl)imidazo[1,2-b]pyridazin-2-yl)(4,4-difluorocyclohexyl)methyl)spiro[2.3]hexane-1-carboxamide] gave an IC50 [1] of 710 nM and an IC50 [2] of 240 nM.

O=C(CCC(F)(F)F)N[C@@H](c1cnn2cc([C@@H](NC(=O)c3ncnn3CCC(F)F)C3CCC(F)(F)CC3)nc2c1)C1CC1 [Example 46, N—((S)-(7-((R)-Cyclopropyl(4,4,4-trifluorobutanamido)methyl)imidazo[1,2-b]pyridazin-2-yl)(4,4-difluorocyclohexyl)methyl)-1-(3,3-difluoropropyl)-1H-1,2,4-triazole-5-carboxamide] was tested, and the IC50 [1] was 640 nM and the IC50 [2] was 130 nM.

Molecule O=C(CCC(F)(F)F)N[C@@H](c1cnn2cc([C@@H](NC(=O)c3ncnn3CCCF)C3CCC(F)(F)CC3)nc2c1)C1CC1 [Example 47, N—((S)-(7-((R)-Cyclopropyl(4,4,4-trifluorobutanamido)methyl)imidazo[1,2-b]pyridazin-2-yl)(4,4-difluorocyclohexyl)methyl)-1-(3-fluoropropyl)-1H-1,2,4-triazole-5-carboxamide] has an IC50 [1] of 640 nM and an IC50 [2] of 180 nM.
